Where two headings read alike, the source gives them in different places.

Assay [1] has as its target CDK13 (Homo sapiens, UniProt Q14004). Briefly: CDK13 kinase inhibitory activity assay (33P-ATP filter binding). It is filed as biochemical. Put shortly: (§1)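 Radiometric filter-binding read-out: after 20 min compound–enzyme/substrate pre-incubation across 9 concentrations, reaction started with ^33P-γ-ATP and run 120 min at room temperature. Filter-bound ^33P-substrate measured after 0.75 % phosphoric acid washes; remaining activity versus DMSO gives IC50.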

For assay [2], the target named is T1, CDK12 (Homo sapiens, UniProt Q9NYV4). Briefly: CDK12 kinase inhibitory activity assay (33P-ATP filter binding). The format is biochemical. Particulars: kinase reaction 120 minutes, 33P-gamma-ATP; read-out: CDK12 IC50. Put shortly: as §1
For assay [3], the system named is MDA-MB-231 breast cancer cells. Briefly: Proliferation inhibitory activity assay against MDA-MB-231 breast cancer cells. It is filed as cell-based. The settings on record: Homo sapiens, 72 hours, CellTiter Glo, relative IC50. The method in brief: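 Cells grown in L-15 with 10% FBS at 37 °C, 0% CO2, then exposed next day to compounds at 9 concentrations (DMSO vehicle) for 72 h. Viability read by CellTiter Glo luminescence; relative IC50 from dose-response curve fit.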

The target in assay [4] is T1, CDK12. Briefly: Cellular CDK12 inhibitory activity assay (Ser2 phosphorylation of RNA polymerase II subunit B1 CTD in MDA-MB-231 cells). The format is cell-based. Set-up: using MDA-MB-231 breast cancer cells; endogenous in cells; host or cells: MDA-MB-231. The settings on record: MDA-MB-231 cells, 6 hours treatment; read-out: pRpbl CTD S2 IC50. Put shortly:
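MDA-MB-231 cells in L-15 with 10 % FBS were treated with compound at 9 concentrations for 6 h at 37 °C, 0 % CO2. In-Cell Western read phospho-Ser2 and total RNA polymerase II CTD on a Li-COR Odyssey; IC50 from 4-parameter dose-response fit.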

Assay [5] addresses CDK2 (Homo sapiens, UniProt P24941). The assay is described as follows: CDK2 kinase inhibitory activity assay and selectivity over CDK12. It is filed as biochemical. Particulars: for IC50: kinase reaction 120 minutes, 33P-gamma-ATP; for CDK2/CDK12: ratio of CDK2 IC50 to CDK12 IC50. Here is the method:
(§2) Before initiating the CDK1 and CDK2 kinase reactions, each Example compound was dissolved and diluted in DMSO as a solvent across 9 concentration ranges at room temperature. The diluted solutions were then incubated with a mixture of kinase and substrate (and cofactors, if required) for 20 minutes. Next, radioisotope-labeled ATP (^33P-gamma-ATP) was added to proceed with the kinase reaction at room temperature for 120 minutes. After the reaction was completed, the reaction mixture was transferred to a filter paper that binds the radioisotope-labeled catalytic product (^33P-substrate). Unreacted ^33P-ATP was removed by washing with 0.75 % phosphoric acid, and then the radioactive phosphorylated substrate remaining on the filter paper was measured. Kinase activity data were expressed as a percentage of the kinase activity remaining in the test sample compared to a DMSO control group. The half-maximal inhibitory concentration (IC50) for each kinase was calculated using Prism software.
(§3) The CDK1 and CDK2 kinase inhibitory activities of the Example compounds measured by the above method were evaluated according to the following criteria, and the results are presented in Table 14.

For assay [6], the target named is CDK1 (Homo sapiens, UniProt P06493). The assay is described as follows: CDK1 kinase inhibitory activity assay and selectivity over CDK12. The settings on record: for IC50: kinase reaction 120 minutes, 33P-gamma-ATP; for CDK1/CDK12: ratio of CDK1 IC50 to CDK12 IC50. It is filed as biochemical. As to the method: as §2, §3
The mark [7] stands for this setting: kinase reaction 120 minutes, 33P-gamma-ATP, read-out: CDK13 IC50.

Sequence of CDK13 (Q14004 whole entry, species assumed): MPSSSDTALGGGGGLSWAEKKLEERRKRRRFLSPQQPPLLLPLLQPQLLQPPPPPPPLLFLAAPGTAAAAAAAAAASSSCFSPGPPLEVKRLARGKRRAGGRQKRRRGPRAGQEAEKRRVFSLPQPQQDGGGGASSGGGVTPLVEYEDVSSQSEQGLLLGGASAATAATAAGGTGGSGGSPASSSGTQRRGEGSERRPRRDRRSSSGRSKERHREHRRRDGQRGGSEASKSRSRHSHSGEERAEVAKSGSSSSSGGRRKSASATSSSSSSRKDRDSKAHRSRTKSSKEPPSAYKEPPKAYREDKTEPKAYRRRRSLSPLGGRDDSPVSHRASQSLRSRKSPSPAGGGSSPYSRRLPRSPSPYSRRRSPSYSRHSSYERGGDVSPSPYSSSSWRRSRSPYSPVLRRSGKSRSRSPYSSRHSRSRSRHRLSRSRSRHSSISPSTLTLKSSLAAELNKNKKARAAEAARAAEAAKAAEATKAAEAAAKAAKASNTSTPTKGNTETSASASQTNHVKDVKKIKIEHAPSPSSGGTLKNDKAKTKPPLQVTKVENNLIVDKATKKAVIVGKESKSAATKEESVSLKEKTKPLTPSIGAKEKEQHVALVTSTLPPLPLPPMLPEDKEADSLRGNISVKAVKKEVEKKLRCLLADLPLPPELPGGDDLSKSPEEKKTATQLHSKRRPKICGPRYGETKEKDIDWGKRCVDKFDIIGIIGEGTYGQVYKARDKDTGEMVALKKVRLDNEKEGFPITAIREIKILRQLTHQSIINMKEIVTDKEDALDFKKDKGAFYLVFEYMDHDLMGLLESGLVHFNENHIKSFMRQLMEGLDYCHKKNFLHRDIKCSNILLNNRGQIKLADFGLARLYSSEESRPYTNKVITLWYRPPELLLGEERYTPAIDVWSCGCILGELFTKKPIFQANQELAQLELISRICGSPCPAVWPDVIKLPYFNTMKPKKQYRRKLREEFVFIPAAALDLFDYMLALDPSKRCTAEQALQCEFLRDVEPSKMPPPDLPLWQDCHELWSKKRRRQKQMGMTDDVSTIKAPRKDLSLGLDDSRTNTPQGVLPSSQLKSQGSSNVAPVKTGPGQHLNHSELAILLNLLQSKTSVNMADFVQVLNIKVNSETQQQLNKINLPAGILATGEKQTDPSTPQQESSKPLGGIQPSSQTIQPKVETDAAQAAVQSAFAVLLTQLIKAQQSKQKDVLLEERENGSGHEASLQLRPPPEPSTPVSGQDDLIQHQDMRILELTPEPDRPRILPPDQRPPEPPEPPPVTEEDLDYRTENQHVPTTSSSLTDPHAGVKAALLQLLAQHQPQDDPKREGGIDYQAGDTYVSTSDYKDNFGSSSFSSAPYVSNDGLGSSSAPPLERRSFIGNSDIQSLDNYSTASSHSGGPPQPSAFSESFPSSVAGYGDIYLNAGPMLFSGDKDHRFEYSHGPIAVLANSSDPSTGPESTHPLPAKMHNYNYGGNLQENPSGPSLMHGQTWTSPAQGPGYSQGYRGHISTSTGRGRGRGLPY
Sequence of CDK13 (O75909 whole entry partner, species assumed): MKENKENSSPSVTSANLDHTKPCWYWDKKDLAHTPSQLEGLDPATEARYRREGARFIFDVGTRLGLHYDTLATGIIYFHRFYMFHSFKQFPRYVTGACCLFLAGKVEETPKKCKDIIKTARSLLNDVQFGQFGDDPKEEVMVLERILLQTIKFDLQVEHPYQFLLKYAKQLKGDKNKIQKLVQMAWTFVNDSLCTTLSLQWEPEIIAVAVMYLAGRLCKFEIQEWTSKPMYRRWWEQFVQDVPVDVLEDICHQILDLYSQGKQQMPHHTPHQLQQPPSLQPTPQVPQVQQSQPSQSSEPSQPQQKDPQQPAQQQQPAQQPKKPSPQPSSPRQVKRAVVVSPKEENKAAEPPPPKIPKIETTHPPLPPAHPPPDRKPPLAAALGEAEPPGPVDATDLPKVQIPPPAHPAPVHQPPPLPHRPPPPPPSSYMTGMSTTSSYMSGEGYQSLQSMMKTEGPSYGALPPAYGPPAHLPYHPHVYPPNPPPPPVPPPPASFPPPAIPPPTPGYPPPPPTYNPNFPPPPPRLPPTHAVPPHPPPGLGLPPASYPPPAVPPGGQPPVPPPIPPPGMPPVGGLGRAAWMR
Sequence of CDK1 (P06493 whole entry, species assumed): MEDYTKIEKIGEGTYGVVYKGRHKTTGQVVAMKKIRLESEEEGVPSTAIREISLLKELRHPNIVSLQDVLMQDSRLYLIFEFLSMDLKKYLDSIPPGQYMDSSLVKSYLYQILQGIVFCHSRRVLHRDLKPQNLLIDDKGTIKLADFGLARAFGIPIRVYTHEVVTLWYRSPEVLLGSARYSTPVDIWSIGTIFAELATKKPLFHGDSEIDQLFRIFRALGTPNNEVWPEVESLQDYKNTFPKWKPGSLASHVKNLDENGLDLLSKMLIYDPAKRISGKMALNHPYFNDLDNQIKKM
Sequence of CDK1 (P14635 whole entry partner, species assumed): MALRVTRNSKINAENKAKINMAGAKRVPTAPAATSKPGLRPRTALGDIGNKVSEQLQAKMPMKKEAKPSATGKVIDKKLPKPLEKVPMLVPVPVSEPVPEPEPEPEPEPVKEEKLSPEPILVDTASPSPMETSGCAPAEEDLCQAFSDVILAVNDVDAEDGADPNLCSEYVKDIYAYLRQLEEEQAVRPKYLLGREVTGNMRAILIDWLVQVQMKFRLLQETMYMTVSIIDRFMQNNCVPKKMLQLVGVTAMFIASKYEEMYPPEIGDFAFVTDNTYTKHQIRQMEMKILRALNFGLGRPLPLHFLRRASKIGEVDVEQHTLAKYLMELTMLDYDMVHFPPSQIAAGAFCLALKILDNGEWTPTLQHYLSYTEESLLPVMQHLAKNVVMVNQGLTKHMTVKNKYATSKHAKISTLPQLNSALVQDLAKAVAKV
T1 sequence (Q9NYV4 whole entry, species assumed): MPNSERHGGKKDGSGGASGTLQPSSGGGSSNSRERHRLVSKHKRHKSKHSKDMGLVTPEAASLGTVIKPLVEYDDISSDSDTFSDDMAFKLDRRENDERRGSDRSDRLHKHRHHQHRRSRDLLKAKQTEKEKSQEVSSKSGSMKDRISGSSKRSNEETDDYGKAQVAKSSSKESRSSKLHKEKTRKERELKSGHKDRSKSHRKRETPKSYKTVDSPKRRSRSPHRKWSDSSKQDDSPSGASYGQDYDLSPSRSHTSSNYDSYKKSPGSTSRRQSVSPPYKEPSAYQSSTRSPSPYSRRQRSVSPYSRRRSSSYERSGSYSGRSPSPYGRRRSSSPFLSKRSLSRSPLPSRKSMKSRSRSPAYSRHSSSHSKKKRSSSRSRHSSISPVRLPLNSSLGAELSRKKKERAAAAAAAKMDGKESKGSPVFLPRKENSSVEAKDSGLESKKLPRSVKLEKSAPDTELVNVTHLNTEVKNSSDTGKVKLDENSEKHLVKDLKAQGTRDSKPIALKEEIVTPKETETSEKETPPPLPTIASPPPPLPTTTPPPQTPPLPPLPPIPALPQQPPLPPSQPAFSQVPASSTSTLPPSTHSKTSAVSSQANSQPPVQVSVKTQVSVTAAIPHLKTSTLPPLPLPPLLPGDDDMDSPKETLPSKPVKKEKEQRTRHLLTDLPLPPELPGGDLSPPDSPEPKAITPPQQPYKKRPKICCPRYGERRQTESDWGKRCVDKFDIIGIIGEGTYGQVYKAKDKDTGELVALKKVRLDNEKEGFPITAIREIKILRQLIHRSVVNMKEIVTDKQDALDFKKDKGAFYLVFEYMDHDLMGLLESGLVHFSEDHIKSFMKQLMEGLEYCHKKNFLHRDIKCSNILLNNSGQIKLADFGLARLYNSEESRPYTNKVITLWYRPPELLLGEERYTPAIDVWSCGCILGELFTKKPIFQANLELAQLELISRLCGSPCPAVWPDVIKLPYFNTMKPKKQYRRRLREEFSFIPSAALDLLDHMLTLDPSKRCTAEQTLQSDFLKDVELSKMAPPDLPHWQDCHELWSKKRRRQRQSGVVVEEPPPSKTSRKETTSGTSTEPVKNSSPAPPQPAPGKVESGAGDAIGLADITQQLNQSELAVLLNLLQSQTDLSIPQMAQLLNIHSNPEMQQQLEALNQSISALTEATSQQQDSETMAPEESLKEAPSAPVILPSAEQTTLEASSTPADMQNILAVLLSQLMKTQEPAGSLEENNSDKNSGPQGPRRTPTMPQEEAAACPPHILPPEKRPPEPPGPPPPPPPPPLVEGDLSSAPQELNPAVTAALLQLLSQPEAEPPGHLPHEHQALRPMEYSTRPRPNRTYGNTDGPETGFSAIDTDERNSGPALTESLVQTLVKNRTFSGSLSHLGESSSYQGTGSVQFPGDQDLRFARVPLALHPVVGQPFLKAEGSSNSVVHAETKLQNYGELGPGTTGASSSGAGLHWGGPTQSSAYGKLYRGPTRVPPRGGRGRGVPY
T1 sequence (O75909 whole entry partner, species assumed): as the sequence (O75909 whole entry partner, species assumed) above

For the compound `C#Cc1cnc2c(NCc3nc4ccc(F)c(F)c4[nH]3)cc(-c3cnc(N)nc3)nn12` [Example 22, 6-(2-aminopyrimidin-5-yl)-N-((6,7-difluoro-1H-benzo[d]imidazol-2-yl)methyl)-3-ethynylimidazo[1,2-b]pyridazin-8-amine], the IC50 was less than 100 nM in assay [1]; less than 100 nM in assay [2]; 50 to 500 nM in assay [3]; less than 300 nM in assay [4]; greater than 1000 nM in assay [5]; greater than 1000 nM in assay [6]. In assay [5], the CDK2/CDK12 result was “A (CDK1/CDK12 or CDK2/CDK12 > 500-fold)”. The CDK1/CDK12 result in assay [6] was “A (CDK1/CDK12 or CDK2/CDK12 > 500-fold)”.
Regarding `OC1CN(c2cc(NCc3nc4cc(Cl)c(Cl)cc4[nH]3)c3ncc(C(F)(F)F)n3n2)C1` [Example 41, 1-(8-(((5,6-dichloro-1H-benzo[d]imidazol-2-yl)methyl)amino)-3-(trifluoromethyl)imidazo[1,2-b]pyridazin-6-yl)azetidin-3-ol], the IC50 is less than 100 nM in assay [1] (setting [7]); less than 100 nM in assay [2]; 50 to 500 nM in assay [3]; less than 300 nM in assay [4]; greater than 1000 nM in assay [5]; greater than 1000 nM in assay [6]. For the same compound, the CDK2/CDK12 entry in assay [5] is on record as “B (100-fold < CDK1/CDK12 or CDK2/CDK12 ≤ 500-fold)”. Moreover, the CDK1/CDK12 entry in assay [6] was “B (100-fold < CDK1/CDK12 or CDK2/CDK12 ≤ 500-fold)”.
Take `COc1cccc2[nH]c(CNc3cc(N4CCOCC4)nn4c(C(F)(F)F)cnc34)nc12` [Example 73, N-((4-methoxy-1H-benzo[d]imidazol-2-yl)methyl)-6-morpholino-3-(trifluoromethyl)imidazo[1,2-b]pyridazin-8-amine]: the IC50 in assay [1] (setting [7]) is less than 100 nM; in assay [2], less than 100 nM; in assay [3] it was no more than 50 nM; in assay [4] it was 300 to 3000 nM; in assay [5] it was greater than 1000 nM; in assay [6] it was greater than 1000 nM. For the same compound, the CDK2/CDK12 result in assay [5] is on record as “A (CDK1/CDK12 or CDK2/CDK12 > 500-fold)”. Further, the CDK1/CDK12 result in assay [6] is listed as “A (CDK1/CDK12 or CDK2/CDK12 > 500-fold)”.
For `N#CC1CCN(c2cc(NCc3nc4cc(Cl)c(Cl)cc4[nH]3)c3ncc(C(F)(F)F)n3n2)CC1` [Example 44, 1-(8-(((5,6-dichloro-1H-benzo[d]imidazol-2-yl)methyl)amino)-3-(trifluoromethyl)imidazo[1,2-b]pyridazin-6-yl)piperidine-4-carbonitrile], the IC50 in assay [1] (setting [7]) was 100 to 500 nM; in assay [2] it was 100 to 500 nM; in assay [3], no more than 50 nM; in assay [4] it was less than 300 nM; in assay [5], greater than 1000 nM; in assay [6], greater than 1000 nM.
For the compound `OC1CC2CCC(C1)N2c1cc(NCc2nc3ccc(F)c(F)c3[nH]2)c2ncc(C(F)(F)F)n2n1` (centres unmarked) [Example 14, 8-(8-(((6,7-difluoro-1H-benzo[d]imidazol-2-yl)methyl)amino)-3-(trifluoromethyl)imidazo[1,2-b]pyridazin-6-yl)-8-azabicyclo[3.2.1]octan-3-ol], the IC50 in assay [1] (setting [7]) was less than 100 nM; in assay [2], 100 to 500 nM; in assay [3], no more than 50 nM; in assay [4], less than 300 nM; in assay [5] it was 100 to 1000 nM; in assay [6], greater than 1000 nM. Moreover, the CDK2/CDK12 result in assay [5] is recorded as “C (CDK1/CDK12 or CDK2/CDK12 ≤ 100-fold)”. In addition, the CDK1/CDK12 entry in assay [6] is given as “C (CDK1/CDK12 or CDK2/CDK12 ≤ 100-fold)”.
Take `Cc1ccnc2[nH]c(CNc3cc(N4CCOCC4)nn4c(C(F)(F)F)cnc34)nc12` [Example 75, N-((7-methyl-3H-imidazo[4,5-b]pyridin-2-yl)methyl)-6-morpholino-3-(trifluoromethyl)imidazo[1,2-b]pyridazin-8-amine]: the IC50 in assay [1] (setting [7]) is less than 100 nM; in assay [2] it was less than 100 nM; in assay [3] it was 50 to 500 nM; in assay [4] it was less than 300 nM; in assay [5], greater than 1000 nM; in assay [6] it was greater than 1000 nM. Also, the CDK2/CDK12 entry in assay [5] is “A (CDK1/CDK12 or CDK2/CDK12 > 500-fold)”. In assay [6], the CDK1/CDK12 result is “A (CDK1/CDK12 or CDK2/CDK12 > 500-fold)”.
For the compound `CN1CC2CCC(C1)N2c1cc(NCc2nc3ccc(F)c(F)c3[nH]2)c2ncc(C(F)(F)F)n2n1` [Example 13], the IC50 was less than 100 nM in assay [1] (setting [7]); less than 100 nM in assay [2]; no more than 50 nM in assay [3]; less than 300 nM in assay [4]; greater than 1000 nM in assay [5]; greater than 1000 nM in assay [6]. The CDK2/CDK12 entry in assay [5] is recorded as “B (100-fold < CDK1/CDK12 or CDK2/CDK12 ≤ 500-fold)”. In assay [6], the CDK1/CDK12 result is reported as “A (CDK1/CDK12 or CDK2/CDK12 > 500-fold)”.
Regarding `Cc1cc2nc(CNc3cc(N4CCOCC4)nn4c(C(F)(F)F)cnc34)[nH]c2cc1C` [Example 72, N-((5,6-dimethyl-1H-benzo[d]imidazol-2-yl)methyl)-6-morpholino-3-(trifluoromethyl)imidazo[1,2-b]pyridazin-8-amine], the IC50 in assay [1] (setting [7]) was less than 100 nM; in assay [2], less than 100 nM; in assay [3], no more than 50 nM; in assay [4], less than 300 nM; in assay [5] it was greater than 1000 nM; in assay [6] it was greater than 1000 nM. Also, in assay [5], the CDK2/CDK12 entry was “A (CDK1/CDK12 or CDK2/CDK12 > 500-fold)”. Also, the CDK1/CDK12 result in assay [6] is “A (CDK1/CDK12 or CDK2/CDK12 > 500-fold)”.
Consider `CN1CC2(C1)CN(c1cc(NCc3nc4cc(Cl)c(Cl)cc4[nH]3)c3ncc(C(F)(F)F)n3n1)C2` [Example 46, N-((5,6-dichloro-1H-benzo[d]imidazol-2-yl)methyl)-6-(6-methyl-2,6-diazaspiro[3.3]heptan-2-yl)-3-(trifluoromethyl)imidazo[1,2-b]pyridazin-8-amine], for which the IC50 in assay [1] (setting [7]) is less than 100 nM; in assay [2] it was less than 100 nM; in assay [3], no more than 50 nM; in assay [4], less than 300 nM; in assay [5] it was greater than 1000 nM; in assay [6], greater than 1000 nM. Moreover, the CDK2/CDK12 entry in assay [5] was “B (100-fold < CDK1/CDK12 or CDK2/CDK12 ≤ 500-fold)”.
On to `OC1CCN(c2cc(NCc3nc4ccc(F)c(F)c4[nH]3)c3ncc(C(F)(F)F)n3n2)CC1` [Example 19, 1-(8-(((6,7-difluoro-1H-benzo[d]imidazol-2-yl)methyl)amino)-3-(trifluoromethyl)imidazo[1,2-b]pyridazin-6-yl)piperidin-4-ol], for which the half-maximal inhibitory concentration (IC50) in assay [1] was less than 100 nM; in assay [2], less than 100 nM; in assay [3] it was no more than 50 nM; in assay [4] it was 300 to 3000 nM; in assay [5], greater than 1000 nM; in assay [6], greater than 1000 nM. In assay [5], the CDK2/CDK12 entry is reported as “A (CDK1/CDK12 or CDK2/CDK12 > 500-fold)”. The CDK1/CDK12 entry in assay [6] is given as “A (CDK1/CDK12 or CDK2/CDK12 > 500-fold)”.
Take `Fc1cccc2[nH]c(CNc3cc(N4CCOCC4)nn4c(C(F)(F)F)cnc34)nc12` [Example 76, N-((4-fluoro-1H-benzo[d]imidazol-2-yl)methyl)-6-morpholino-3-(trifluoromethyl)imidazo[1,2-b]pyridazin-8-amine]: the IC50 in assay [1] (setting [7]) is less than 100 nM; in assay [2], less than 100 nM; in assay [3] it was no more than 50 nM; in assay [4] it was less than 300 nM; in assay [5], greater than 1000 nM; in assay [6], greater than 1000 nM. In addition, in assay [5], the CDK2/CDK12 result was “A (CDK1/CDK12 or CDK2/CDK12 > 500-fold)”. Moreover, the CDK1/CDK12 entry in assay [6] is listed as “A (CDK1/CDK12 or CDK2/CDK12 > 500-fold)”.
`Fc1ccc2nc(CNc3cc(N4CCNCC4)nn4c(C(F)(F)F)cnc34)[nH]c2c1F` [Example 17]: the IC50 in assay [1] (setting [7]) is less than 100 nM; in assay [2] it was less than 100 nM; in assay [3], no more than 50 nM; in assay [4], less than 300 nM; in assay [5], greater than 1000 nM; in assay [6], greater than 1000 nM. Besides, the CDK2/CDK12 entry in assay [5] is reported as “B (100-fold < CDK1/CDK12 or CDK2/CDK12 ≤ 500-fold)”. The CDK1/CDK12 entry in assay [6] is given as “A (CDK1/CDK12 or CDK2/CDK12 > 500-fold)”.
For `FC(F)(F)c1cnc2c(NCc3nc4ccccc4[nH]3)cc(N3CCOCC3)nn12` [Example 69, N-((1H-benzo[d]imidazol-2-yl)methyl)-6-morpholino-3-(trifluoromethyl)imidazo[1,2-b]pyridazin-8-amine], the IC50 in assay [1] (setting [7]) is less than 100 nM; in assay [2] it was less than 100 nM; in assay [3] it was 50 to 500 nM; in assay [4] it was 300 to 3000 nM; in assay [5] it was greater than 1000 nM; in assay [6] it was greater than 1000 nM. The CDK2/CDK12 result in assay [5] is on record as “B (100-fold < CDK1/CDK12 or CDK2/CDK12 ≤ 500-fold)”. Further, in assay [6], the CDK1/CDK12 entry is listed as “B (100-fold < CDK1/CDK12 or CDK2/CDK12 ≤ 500-fold)”.

Values taken from patent EP4813991A1 (iLeadBMS Co., Ltd., priority 2023, dated 2025).
